Measurements published in patent publication US4563476A, “Substituted 5-hydroxy-2,3-dihydrobenzofurans and analogs thereof useful as anti-inflammatory agents” (Merck & Co., Inc., priority 1983, dated 1986).

Columns and labels:
[1] = tested on: inflammatory responses elicited by topically applied phorbol myristate acetate (PMA) or topically applied arachidonic acid (AA); settings: previously established; cited from earlier work
[2] = tested on: inflammatory responses elicited by topically applied phorbol myristate acetate (PMA) or topically applied arachidonic acid (AA); assay: Topical mouse ear assay (TME), edema by wet weight; format: in vivo, mice; settings: PMA or AA not specified
Method: The topical mouse ear assay (TME) is the method by which the novel compounds of the present invention are evaluated for its effect on inflammatory responses elicited by topically applied phorbol myristate acetate (PMA) or topically applied arachidonic acid (AA). The inflammatory responses may be in the form of edema (measured by wet weight); vascular permeability (measured by ^125 I-BSA accumulation); or PMN infiltration (measured by myeloperoxidase activity).
Method: The right ears of mice (5 mice per group) were treated topically with either […] or 1000 μg AA alone or with the test compound in 25 μl of vehicle. The vehicle was water/pyridine/acetone (1:2:97). A control group of mice received the vehicle only. The mice were allowed food and water ad libitum during the treatment period; 2 hours for AA and 4 hours for PMA. The mice were sacrificed by cervical dislocation and a 6 mm diameter disc of tissue punched from both the treated and untreated ears. The tissue biopsies were immediately weighed and the weight increase of the treated ear relative to the weight of the untreated ear determined.
For the determination of vascular permeability, […] ^125 I-bovine serum albumin (^125 I-BSA) was administered in 0.5 ml phosphate buffered saline 15 min prior to the topical application. At the termination of the experiment, the amount of radioactivity in both the treated and untreated ear biopsies was determined and the increased amount of radioactivity in the treated tissue relative to the amount of radioactive in the untreated tissue determined.
As a measure of PMN infiltration, the amount of myeloperoxidase (MPO) activity in the same tissues was determined. The tissue biopsies were homogenized into 1 ml 0.5% hexadecyltrimethylammonium bromide and centrifuged for 45 min. at 1200×g. Aliquots 40 μl, of the supernatant phases were assayed for MPO activity by a colorimetric method devised by H. Dougherty for automated Titertek analysis. The MPO activity is expressed as the OD450 of the treated ear homogenate minus the OD450 of the non-treated ear homogenate.
All of the data are expressed as the mean ±SEM, N=5 mice/group.

| SMILES | activity in the topical mouse ear assay [1] | Edema (% inhibition) ([2]; Dosage 50 μg) | Edema (% inhibition) ([2]; Dosage 100 μg) | Edema (% inhibition) ([2]; Dosage 200 μg) | Edema (% inhibition) ([2]; Dosage 400 μg) |
| --- | --- | --- | --- | --- | --- |
| COc1ccc2c(c1)c(CC(=O)O)c(C)n2C(=O)c1ccc(Cl)cc1 [Indomethacin, indomethacin] | active | 24% | 42% | 46% | 85% |
| C[C@@H]1C[C@H]2[C@@H]3CCC4=CC(=O)C=C[C@]4(C)[C@@]3(F)[C@@H](O)C[C@]2(C)[C@@]1(O)C(=O)CO [dexamethasone] | active |  |  |  |  |
| CC(=O)c1ccc(NCc2cc3c(cc2O)CCO3)cc1 [A, 5-Hydroxy-6-(4-acetylphenyl)aminomethyl-2,3-dihydrobenzofuran] |  | 44% | 45% | 60% | 76% |
